# Data as given in US8415469B2, “Compounds and methods for kinase modulation, and indications therefor” (Plexxikon Inc., priority 2005, dated 2013).
# How the values were obtained:
# Type in all cases: biochemical
# [1] = molecular target: T1, Fms (Homo sapiens, UniProt P07333); experiment: AlphaScreen kinase assay, Fms; details: read-out: IC50, activity toward kinase Fms
# T1 construct: purchased Upstate Biotechnology
# [2] = molecular target: T2, Kit (Homo sapiens, UniProt P10721); experiment: AlphaScreen kinase assay, Kit; details: read-out: IC50, activity toward kinase Kit
# T2 construct: P1332.N6 BI PTP KIT M552-K948-X COD; His6 (N); made in house; host or cells: E. coli (PTP1B co-expressed)
# [3] = molecular target: Akt3 (Homo sapiens, UniProt Q9Y243); experiment: AlphaScreen kinase assay, Akt3; details: read-out: IC50, activity toward kinase Akt3
# Method in brief: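 Bead-proximity format: phosphopeptide links anti-phospho antibody acceptor beads to streptavidin donor beads via biotin tag. Compounds were serially diluted 1:3 (8 points) from 20 mM stocks in DMSO.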
# [4] = molecular target: T3, EphB2 (Homo sapiens, UniProt P29323); experiment: Z'-Lyte FRET kinase assay (Invitrogen), EphB2; details: read-out: IC50, activity toward kinase EphB2
# T3 construct: purchased Invitrogen (assay run by Invitrogen)
# T3 sequence (P29323 19-1055): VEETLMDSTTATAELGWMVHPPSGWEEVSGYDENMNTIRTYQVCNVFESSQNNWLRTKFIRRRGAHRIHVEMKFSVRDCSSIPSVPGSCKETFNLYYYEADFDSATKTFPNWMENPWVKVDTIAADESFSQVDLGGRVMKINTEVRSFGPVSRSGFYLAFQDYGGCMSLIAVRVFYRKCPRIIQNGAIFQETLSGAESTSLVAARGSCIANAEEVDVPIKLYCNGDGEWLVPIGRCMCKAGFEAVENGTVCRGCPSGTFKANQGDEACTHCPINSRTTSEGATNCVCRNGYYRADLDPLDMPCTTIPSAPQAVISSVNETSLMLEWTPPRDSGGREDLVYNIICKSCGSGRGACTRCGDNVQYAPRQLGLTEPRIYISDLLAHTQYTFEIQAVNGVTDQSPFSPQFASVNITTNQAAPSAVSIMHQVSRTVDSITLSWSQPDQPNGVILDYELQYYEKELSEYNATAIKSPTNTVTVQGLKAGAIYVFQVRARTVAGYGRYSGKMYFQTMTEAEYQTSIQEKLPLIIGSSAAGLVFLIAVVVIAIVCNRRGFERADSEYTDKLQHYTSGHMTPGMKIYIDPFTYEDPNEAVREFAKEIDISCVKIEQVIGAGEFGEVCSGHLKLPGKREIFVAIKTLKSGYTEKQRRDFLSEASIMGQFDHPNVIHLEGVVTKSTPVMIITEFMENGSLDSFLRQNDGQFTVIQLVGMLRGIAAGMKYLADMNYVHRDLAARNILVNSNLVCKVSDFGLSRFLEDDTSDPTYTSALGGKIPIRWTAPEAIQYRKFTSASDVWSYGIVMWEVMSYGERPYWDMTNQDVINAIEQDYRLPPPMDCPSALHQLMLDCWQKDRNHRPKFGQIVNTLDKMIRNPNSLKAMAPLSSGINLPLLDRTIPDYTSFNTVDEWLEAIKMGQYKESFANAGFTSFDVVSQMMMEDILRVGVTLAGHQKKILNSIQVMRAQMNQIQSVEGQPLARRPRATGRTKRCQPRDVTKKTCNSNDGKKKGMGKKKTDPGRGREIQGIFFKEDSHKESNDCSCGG
# Method in brief: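 Inhibition was inferred from protease cleavage of non-phosphorylated peptide, measured as a coumarin/fluorescein ratio. Kinase reactions used 10 μM ATP for 1 h at room temperature.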
# [5] = molecular target: T4, Src (Homo sapiens, UniProt P12931); experiment: AlphaScreen kinase assay, Src; details: read-out: IC50, activity toward kinase Src
# T4 construct: P1144. pET-N6 BI-PTP SRC V86-L536-X; made in house
# T4 sequence (P12931 with tags, fused parts or gaps): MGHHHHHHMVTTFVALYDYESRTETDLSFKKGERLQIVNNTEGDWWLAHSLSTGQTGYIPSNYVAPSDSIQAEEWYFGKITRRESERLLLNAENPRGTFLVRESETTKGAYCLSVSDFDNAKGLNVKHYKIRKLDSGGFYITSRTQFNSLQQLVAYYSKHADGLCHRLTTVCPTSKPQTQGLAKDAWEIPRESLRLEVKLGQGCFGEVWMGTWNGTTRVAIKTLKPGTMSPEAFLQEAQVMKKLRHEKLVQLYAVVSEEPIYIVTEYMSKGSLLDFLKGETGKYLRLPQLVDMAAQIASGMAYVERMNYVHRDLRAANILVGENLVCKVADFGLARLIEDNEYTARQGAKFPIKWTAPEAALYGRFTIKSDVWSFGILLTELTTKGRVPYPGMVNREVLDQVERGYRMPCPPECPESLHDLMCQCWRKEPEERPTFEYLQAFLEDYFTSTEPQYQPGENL
# T2 sequence (P10721 with tags, fused parts or gaps): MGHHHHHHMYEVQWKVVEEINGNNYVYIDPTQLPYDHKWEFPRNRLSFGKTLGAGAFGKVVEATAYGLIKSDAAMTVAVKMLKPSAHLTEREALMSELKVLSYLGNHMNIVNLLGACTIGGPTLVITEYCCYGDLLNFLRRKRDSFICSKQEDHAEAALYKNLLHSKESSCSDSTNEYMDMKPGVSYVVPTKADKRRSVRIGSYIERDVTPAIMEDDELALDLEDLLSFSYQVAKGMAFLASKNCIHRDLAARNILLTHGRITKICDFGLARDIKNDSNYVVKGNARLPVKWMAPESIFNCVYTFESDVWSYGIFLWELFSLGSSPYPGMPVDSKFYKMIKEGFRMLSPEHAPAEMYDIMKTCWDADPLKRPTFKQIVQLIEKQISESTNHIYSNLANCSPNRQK
# Sequence of Akt3 (Q9Y243 whole entry): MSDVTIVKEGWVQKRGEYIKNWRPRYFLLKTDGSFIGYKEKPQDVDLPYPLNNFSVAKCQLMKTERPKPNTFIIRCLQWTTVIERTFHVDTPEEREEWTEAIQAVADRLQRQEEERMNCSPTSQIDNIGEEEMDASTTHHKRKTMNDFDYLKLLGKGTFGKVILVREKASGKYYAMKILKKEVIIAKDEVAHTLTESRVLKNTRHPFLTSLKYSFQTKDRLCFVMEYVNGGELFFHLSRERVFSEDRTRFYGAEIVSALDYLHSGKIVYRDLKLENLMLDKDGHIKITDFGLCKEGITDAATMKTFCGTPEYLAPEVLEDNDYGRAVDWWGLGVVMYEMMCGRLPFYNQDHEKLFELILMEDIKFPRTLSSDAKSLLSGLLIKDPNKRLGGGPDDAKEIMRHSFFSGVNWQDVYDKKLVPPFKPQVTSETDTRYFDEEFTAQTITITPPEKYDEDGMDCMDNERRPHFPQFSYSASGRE
# T1 sequence (P07333 20-972): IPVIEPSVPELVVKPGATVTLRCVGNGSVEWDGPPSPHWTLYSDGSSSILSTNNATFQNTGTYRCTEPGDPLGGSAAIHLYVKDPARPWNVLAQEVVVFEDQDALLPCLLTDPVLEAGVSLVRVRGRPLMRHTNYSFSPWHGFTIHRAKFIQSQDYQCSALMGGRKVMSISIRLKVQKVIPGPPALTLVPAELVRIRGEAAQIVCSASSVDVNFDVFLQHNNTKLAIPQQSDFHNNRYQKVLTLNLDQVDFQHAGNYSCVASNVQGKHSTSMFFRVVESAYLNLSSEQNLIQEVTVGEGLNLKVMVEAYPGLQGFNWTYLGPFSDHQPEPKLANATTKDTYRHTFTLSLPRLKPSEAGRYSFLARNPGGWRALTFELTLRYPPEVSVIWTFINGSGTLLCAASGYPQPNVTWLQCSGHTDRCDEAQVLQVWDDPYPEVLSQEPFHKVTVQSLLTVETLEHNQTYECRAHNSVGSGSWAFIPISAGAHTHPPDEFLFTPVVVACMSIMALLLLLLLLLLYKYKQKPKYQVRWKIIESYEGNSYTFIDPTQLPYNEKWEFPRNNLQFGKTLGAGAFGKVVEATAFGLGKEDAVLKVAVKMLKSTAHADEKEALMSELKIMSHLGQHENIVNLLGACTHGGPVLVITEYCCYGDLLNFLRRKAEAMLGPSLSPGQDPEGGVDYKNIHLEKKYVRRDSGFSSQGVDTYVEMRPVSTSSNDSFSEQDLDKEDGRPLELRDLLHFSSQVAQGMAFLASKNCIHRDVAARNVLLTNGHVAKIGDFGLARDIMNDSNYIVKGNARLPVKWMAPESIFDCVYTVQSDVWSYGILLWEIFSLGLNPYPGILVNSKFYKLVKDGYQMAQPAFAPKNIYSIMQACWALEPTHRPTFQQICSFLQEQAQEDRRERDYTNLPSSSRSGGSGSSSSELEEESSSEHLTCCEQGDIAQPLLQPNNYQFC
IC50 [1] [µM],IC50 [2] [µM],IC50 [3] [µM],IC50 [4] [µM],IC50 [5] [µM],Compound
≤ 10,≤ 10,–,–,–,"CCCS(=O)(=O)Nc1ccc(F)c(C(=O)c2c[nH]c3ncc(-c4ccccc4)cc23)c1F [Compound P-0636, Propane-1-sulfonic acid [2,4-difluoro-3-(5-phenyl-1H-pyrrolo[2,3-b]pyridine-3-carbonyl)-phenyl]-amide]"
–,–,≤ 10,–,–,CS(=O)(=O)Nc1cccc(-c2ccnc3[nH]cc(C(=O)c4cc(F)ccc4F)c23)c1 [Compound P-0060]
–,–,–,≤ 10,–,Cc1ccccc1C(=O)c1c[nH]c2nccc(-c3cccc(NS(C)(=O)=O)c3)c12 [Compound P-0109]
≤ 10,≤ 10,≤ 10,–,≤ 10,O=C(c1cccc(O)c1)c1c[nH]c2ncc(-c3cccs3)cc12 [Compound P-0196]
–,–,–,≤ 10,–,Nc1cccc(-c2ccnc3[nH]cc(C(=O)c4ccccc4F)c23)c1 [Compound P-0022]
≤ 10,≤ 10,–,–,≤ 10,"OCCOc1ccc(F)c(Cc2c[nH]c3ncc(-c4cccnc4)cc23)c1F [Compound P-1394, 2-[2,4-Difluoro-3-(5-pyridin-3-yl-1H-pyrrolo[2,3-b]pyridin-3-ylmethyl)-phenoxy]-ethanol]"
≤ 10,≤ 10,–,–,≤ 10,"CCCCNC(=O)Nc1ccc(F)c(C(=O)c2c[nH]c3ncc(-c4cccnc4)cc23)c1F [Compound P-1318, 1-Butyl-3-[2,4-difluoro-3-(5-pyridin-3-yl-1H-pyrrolo[2,3-b]pyridine-3-carbonyl)-phenyl]-urea]"
≤ 10,≤ 10,≤ 10,–,≤ 10,Nc1cccc(-c2cnc3[nH]cc(C(=O)c4cc(O)ccc4F)c3c2)c1 [Compound P-0002]
–,–,–,≤ 10,–,CC(=O)Nc1cccc(-c2ccnc3[nH]cc(C(=O)c4ccccc4F)c23)c1 [Compound P-0070]
–,≤ 10,≤ 10,–,–,"Oc1ccc(F)c(Cc2c[nH]c3ncc(Br)cc23)c1F [Compound P-0122, 3-(5-Bromo-1H-pyrrolo[2,3-b]pyridin-3-ylmethyl)-2,4-difluoro-phenol]"
≤ 10,≤ 10,–,–,≤ 10,CCCC(=O)Nc1ccc(F)c(Cc2c[nH]c3ncc(-c4cccnc4)cc23)c1F [Compound P-1280]
≤ 10,≤ 10,≤ 10,–,≤ 10,"Nc1cccc(-c2cnc3[nH]cc(C(=O)c4cccc(O)c4F)c3c2)c1 [Compound P-0004, [5-(3-amino-phenyl)-1H-pyrrolo[2,3-b]pyridin-3-yl]-(2-fluoro-3-hydroxy-phenyl)methanone]"
–,≤ 10,–,≤ 10,–,Cc1ccc(F)cc1C(=O)c1c[nH]c2ncc(-c3ccc(C(N)=O)cc3)cc12 [Compound P-0050]
–,–,–,≤ 10,–,"Oc1cccc(Cc2c[nH]c3ncc(-c4cccs4)cc23)c1F [Compound P-0052, 2-Fluoro-3-(5-thiophen-2-yl-1H-pyrrolo[2,3-b]pyridin-3-ylmethyl)-phenol]"
≤ 10,≤ 10,–,–,–,"O=C(Nc1ccc(Cc2c[nH]c3ncccc23)cc1)Nc1cccc(C(F)(F)F)c1 [Compound P-0262, 1-[4-(1H-Pyrrolo[2,3-b]pyridin-3-ylmethyl)-phenyl]-3-(3-trifluoromethyl-phenyl)-urea]"
–,≤ 10,–,–,≤ 10,"O=C(c1cccc(O)c1F)c1c[nH]c2ncc(-c3cccs3)cc12 [Compound P-0521, (2-fluoro-3-hydroxy-phenyl)-(5-thiophen-2-yl-1H-pyrrolo[2,3-b]pyridin-3-yl)-methanone]"
≤ 10,≤ 10,–,–,≤ 10,O=C(c1ccccc1F)c1c[nH]c2ncc(-c3ccsc3)cc12 [Compound P-0134]
–,≤ 10,–,–,≤ 10,CS(=O)(=O)c1cccc(-c2ccnc3[nH]cc(C(=O)c4cc(F)ccc4F)c23)c1 [Compound P-0171]

IC50 [1] [µM],IC50 [2] [µM],IC50 [3] [µM],IC50 [4] [µM],IC50 [5] [µM],Compound
–,–,≤ 10,–,–,Cc1ccc(S(=O)(=O)NCc2c[nH]c3ncccc23)cc1 [Compound P-0058]
–,≤ 10,≤ 10,–,–,"O=C(c1ccc(O)cc1)c1c[nH]c2ncc(-c3cccs3)cc12 [Compound P-0024, (4-Hydroxy-phenyl)-(5-thiophen-2-yl-1H-pyrrolo[2,3-b]pyridin-3-yl)-methanone]"
–,≤ 10,–,≤ 10,–,NC(=O)c1ccc(-c2ccnc3[nH]cc(C(=O)c4cc(F)ccc4F)c23)cc1 [Compound P-0013]
–,–,–,≤ 10,–,Cc1ccc(F)cc1C(=O)c1c[nH]c2nccc(-c3cccc(NS(C)(=O)=O)c3)c12 [Compound P-0124]
–,–,–,≤ 10,–,Cc1ccccc1C(=O)c1c[nH]c2nccc(-c3cccc(N)c3)c12 [Compound P-0044]
≤ 10,≤ 10,≤ 10,–,≤ 10,"CS(=O)(=O)c1cccc(-c2cnc3[nH]cc(C(=O)c4cc(O)ccc4F)c3c2)c1 [Compound P-0008, (2-Fluoro-5-hydroxy-phenyl)-[5-(3-methanesulfonyl-phenyl)-1H-pyrrolo[2,3-b]pyridin-3-yl]-methanone]"
≤ 10,≤ 10,–,–,–,OC(c1c(F)ccc(F)c1F)c1c[nH]c2ncc(-c3cccnc3)cc12 (stereo not shown) [Compound P-0101]
≤ 10,≤ 10,≤ 10,–,≤ 10,"CS(=O)(=O)c1cccc(-c2cnc3[nH]cc(C(=O)c4cccc(O)c4F)c3c2)c1 [Compound P-0026, (2-Fluoro-3-hydroxy-phenyl)-[5-(3-methanesulfonylphenyl)1H-pyrrolo[2,3-b]pyridin-3-yl]-methanone]"
≤ 10,≤ 10,–,–,≤ 10,"CCCS(=O)(=O)Nc1ccc(F)c(C(=O)c2c[nH]c3ncc(OC)cc23)c1F [Compound P-0806, Propane-1-sulfonic acid [2,4-difluoro-3-(5-methoxy-1H-pyrrolo[2,3-b]pyridine-3-carbonyl)-phenyl]-amide]"
–,–,–,≤ 10,–,NC(=O)c1ccc(-c2ccnc3[nH]cc(C(=O)c4ccccc4F)c23)cc1 [Compound P-0014]
–,≤ 10,–,–,–,O=C(c1cccc(O)c1)c1c[nH]c2nccc(-c3cc(F)cc(F)c3)c12 [Compound P-0039]
≤ 10,≤ 10,–,–,–,"COc1cc(OC)cc(C(=O)c2c[nH]c3ncc(-c4cccc(NS(C)(=O)=O)c4)cc23)c1 [Compound P-1426, N-{3-[3-(3,5-Dimethoxy-benzoyl)-1H-pyrrolo[2,3-b]pyridin-5-yl]-phenyl}-methanesulfonamide]"
≤ 10,≤ 10,–,–,≤ 10,CN(C)S(=O)(=O)Nc1ccc(F)c(Cc2c[nH]c3ncc(-c4cccnc4)cc23)c1F [Compound P-0166]
–,≤ 10,–,≤ 10,–,Oc1cccc(Cc2c[nH]c3ncc(-c4ccsc4)cc23)c1 [Compound P-0056]
≤ 10,≤ 10,–,–,≤ 10,"COc1cccc(C(=O)c2c[nH]c3ncc(-c4cccc(NC(C)=O)c4)cc23)c1F [Compound P-1336, N-{3-[3-(2-Fluoro-3-methoxy-benzoyl)-1H-pyrrolo[2,3-b]pyridin-5-yl]-phenyl}-acetamide]"
–,≤ 10,–,≤ 10,–,Nc1ccnc2[nH]cc(C(=O)c3ccccc3)c12 [Compound P-0029]
–,–,–,≤ 10,–,COc1ccc(C(=O)c2c[nH]c3ncc(-c4cccc(/C=C/C(=O)O)c4)cc23)c(Cl)c1 [Compound P-0015]
≤ 10,≤ 10,–,–,≤ 10,"Cc1c(NS(C)(=O)=O)cccc1C(=O)c1c[nH]c2ncc(-c3ccccc3)cc12 [Compound P-0082, N-[2-Methyl-3-(5-phenyl-1H-pyrrolo[2,3-b]pyridine-3-carbonyl)-phenyl]-methanesulfonamide]"
